Laboratory results: patent publication US9107889B2, “Compositions comprising an NO donor and a dithiolane and their use for improvement of sexual function” (Encrypta GmbH, priority 2005, dated 2015)

How the values were obtained:
[1] = system: premature ejaculation; assay: Clinical case reports: duration of intercourse / premature ejaculation; format: in vivo, human; details: Case 5; Silfenadil and Verdenafil
Method: (§1) A patient complained about worsening of erection since 7 years. Sexual intercourse was only possible in selected position. In addition, they suffered from premature ejaculation. Their libido remained intact. The IEFF score at diagnosis was 11. The diagnosis was physical ED and premature ejaculation. 600 mg α-lipoic acid was given as single dose and arginine was given in 4 single doses over the day of 2 g. The erection improved and the intercourse was prolonged from 1-2 minutes to 7 minutes. The IEFF score changed from 11 to 15 points. The 4 single doses have been changed to a single dose of 10 g arginine, taken together with the α-lipoic acid.
(§2) A patient complained about worsening of erection and premature ejaculation. After administration of Silfenadil and Verdenafil, the erection improved; however, the premature ejaculations remained. The diagnosis was psychogenic ED and premature ejaculation. […] However, 200 mg thioctic acid together with 10 g arginine led to an improvement of the IIEF from 8 to 20 points. The duration of intercourse was extended from 1 to 4 minutes.
A person was able to perform intercourse only after nasal intake of isoamylnitrite since 5 years. However, intercourse was still unsatisfactory due to unpredictable erections and premature ejaculations. The diagnosis was physical erectile dysfunction and premature ejaculation. […]

[2] = Adverse events in the clinical cases; format: in vivo, human; details: Case 1
Method: (§3) A person suffered since 3 months from worsening of erection (reduction of penile tension) and of a slight reduction of libido. Their IIEF count at the examination was 9. All biochemical parameters and hormones were within the normal range. The Doppler sonography of the penile vessels was normal. A challenge test with Silfenadil was positive, thereby excluding an organic pathology of the erectile dysfunction (ED). […] Psychogenic ED was diagnosed after examination. […] Arginine (5 g) and 600 mg α-lipoic acid were taken orally 30 minutes prior intercourse. After therapy, erection normalized. The IIEF score improved from 9 to 21 points.
None of the cases reported adverse events due to the intake of the combination partners. Attributes of cardiovascular dysfunction were not observed. Acutely, oral liquid presentations were applied, chronically both liquid and solid presentations.

[3] = system: erectile dysfunction (ED); assay: Challenge test with Silfenadil; format: in vivo, human; details: Case 1; positive excludes organic pathology of ED
Method: as §3

[4] = system: erectile dysfunction (ED); assay: Clinical case reports: erectile function, International Index of Erectile Function (IIEF) score; format: in vivo, human
Source text: ED is clinically assessed by the application of the International Index of Erectile Function (IIEF Scale). The scale consists of 5 items related to erectile function scored from never (1 points) to always (5 points). 21-25 points translate to the absence of ED, 16-20 points relate to a mild ED, 11-15 points relate to a moderate ED and 5-10 points translate to a severe ED.
as §3
A person complained since a week about insufficient erection. The person started sexual life with regularly intercourse twice a week. 3 months ago, they changed the sexual partner. At the 1st intercourse with the new partner, they experienced overexcitement. Since that time erection worsened, with an IIEF score of 8 points. The biochemical and hormonal values were within the normal range. The diagnosis was psychogenic ED and failure expectation syndrome. […] After change to 4 g arginine and 300 mg α-lipoic acid, the erection improved. The IIEF score improved from 8 to 12 points. In the meantime, the patient changed to chronic intake of 1 g arginine+100 mg α-lipoic acid daily. Occasionally, they take on demand prior intercourse additional 4 g arginine+300 mg α-lipoic acid.
as §1
A patient (company manager with associated psychological stress) complained about reduced erection and reduced libido since the last 13 years. The morning reactions retained. […] The diagnosis was psychogenic ED and manager syndrome. […] The IIEF score improved from 9 to 24 points. For chronic intake, the daily dose of arginine has been reduced to 2 g, with no change of the α-lipoic acid intake.
as §2

[5] = system: loss of libido in women; assay: Clinical case report: female sexual function (libido, orgasm, IFSF questionnaire); format: in vivo, human; details: Case 6; arginine alone 3 g daily increased to 10 g
Source text: Female sexual function can be assessed by the Index of Female Sexual Function (IFSF), a 9-item self-assessment questionnaire. The IFSF is much more comprehensive in respect of sexual function assessment compared to the IIEF. Parameters to be assessed are discomfort during intercourse, degree of vaginal dryness, number of attempts to intercourse, rate and degree of sexual desire, level of satisfaction with sex life and relationship, degree of clitoral sensation and quality of orgasm.
A person experienced loss of libido after they have born their first child. Intercourse was often painful due to diminished […]. […] Since two years, they regularly attend with their spouse marriage counseling. […] The dose was increased weekly by 100 mg. […] The ISFS questionnaire improved (10 points). They reported that their partnership has improved. Marriage counseling has been aborted.

[6] = cited from earlier work

CCCc1nn(C)c2c(=O)[nH]c(-c3cc(S(=O)(=O)N4CCN(C)CC4)ccc3OCC)nc12 [Silfenadil]
premature ejaculations after administration [1]: remained
side effect evoked by administration [2]: severe redness of face
challenge test result [3]: positive
erection after administration ([4]; Case 5, psychogenic ED and premature ejaculation, Silfenadil and Verdenafil): improved

N=C(N)NCCC[C@H](N)C(=O)O [arginine]
effect on loss of libido / absent orgasm [5]: did not improve the situation
change of IIEF score ([4]; Case 2, psychogenic ED, baseline IIEF 8, oral intake of 4 g arginine alone): did not change
effect on ED / premature ejaculation ([4]; Case 5, 10 g arginine on top of basic treatment (Silfenadil, Verdenafil)): without any effect

O=C(O)CCCCC1CCSS1 (stereo not drawn) [α-lipoic acid]
pKa [6]: 5.3
change of IIEF score ([4]; Case 1, psychogenic ED, baseline IIEF 9, oral intake of 600 mg α-lipoic acid alone): did not change
effect on erection ([4]; Case 4, psychogenic ED, single dose 200 mg α-lipoic acid alone): without any effect
effect on erection ([4]; Case 4, α-lipoic acid alone increased to 600 mg): did improve the situation
